Common to all, as to format: cell-based
Test [1] deals with A-673. In words: A-673 cell viability.
The subject of test [2] is FoxM1 A mRNA. In words: Splice EC50: FoxM1 A mRNA increase (exon excluded). Conditions: read-out: Splice EC50 (nM)^B.
Test [3] concerns FoxM1 BC mRNA. In words: Splice IC50: FoxM1 BC mRNA decrease (exon included). Conditions: read-out: Splice IC50 (nM)^C.
Setting [4] is: Homo sapiens, A673, Cell viability.

In test [1] (Cell viability), “2-(6-(((1R,3S,5S)-1,5-dimethyl-8-azabicyclo[3.2.1]octan-3-yl)(methyl)amino)pyridazin-3-yl)-5-(l-(methyl-d3)-1H-pyrazol-4-yl)phenol [compound 171]” returned an IC50 of 10 to 100 nM.
Consider “6-(6-(((1R,3S,5S)-8-azabicyclo[3.2.1]octan-3-yl)(methyl)amino)pyridazin-3-yl)quinolin-7-ol [compound 162]”, for which, in test [1] (Cell viability), the IC50 was in the range of 251 to 500 nM.
For `Oc1cc(-c2cn[nH]c2)ccc1-c1ccc(O[C@@H]2C[C@H]3COC[C@@H](C2)N3)nn1` [compound 159, 2-(6-(((1R,5S,7r)-3-oxa-9-azabicyclo[3.3.1]nonan-7-yl)oxy)pyridazin-3-yl)-5-(1H-pyrazol-4-yl)phenol], the IC50 in test [1] (setting [4]) and in test [3] was 501 to 1000 nM in each case. Besides, the EC50 in test [2] was 251 to 500 nM.
As for `Cc1cn(-c2ccc(-c3ccc(N(C)[C@H]4C[C@]5(C)CC[C@](C)(C4)N5)nn3)c(O)c2)cn1` [compound 177, 2-(6-(((1R,3S,5S)-1,5-dimethyl-8-azabicyclo[3.2.1]octan-3-yl)(methyl)amino)pyridazin-3-yl)-5-(4-methyl-1H-imidazol-1-yl)phenol], the results for the IC50 in test [1] (setting [4]) and in test [3] were 10 to 100 nM and less than 10 nM, respectively. Besides, the EC50 in test [2] is less than 10 nM.
With `Oc1cc(-c2c[nH]nn2)ccc1-c1ccc(O[C@@H]2C[C@H]3CC[C@@H](C2)N3)nn1` [compound 253, 2-(6-(((1R,3S,5S)-8-azabicyclo[3.2.1]octan-3-yl)oxy)pyridazin-3-yl)-5-(1H-1,2,3-triazol-4-yl)phenol], the IC50 in test [1] (setting [4]) is 501 to 1000 nM; in test [3], 251 to 500 nM. The EC50 in test [2] lay in the range of 251 to 500 nM.
For the molecule `CN(c1ccc(-c2ccc(-n3nccn3)cc2O)nn1)[C@@H]1C[C@H]2CCC[C@@H](C1)N2` [compound 275, 2-(6-(((1R,3S,5S)-9-azabicyclo[3.3.1]nonan-3-yl)(methyl)amino)pyridazin-3-yl)-5-(2H-1,2,3-triazol-2-yl)phenol], the IC50 in test [1] (Cell viability) and in test [3] was less than 10 nM each time. The EC50 in test [2] is less than 10 nM.
For the molecule `Oc1cc(-c2cn[nH]c2)ccc1-c1ccc(O[C@@H]2C[C@H]3CCC[C@@H](C2)N3)nn1` [compound 277, 2-(6-(((1R,3R,5S)-9-azabicyclo[3.3.1]nonan-3-yl)oxy)pyridazin-3-yl)-5-(1H-pyrazol-4-yl)phenol], the IC50 in test [1] (Cell viability) and in test [3] was greater than 1000 nM throughout. Moreover, the EC50 in test [2] was greater than 1000 nM.
In test [1] (setting [4]), `Oc1cc(-c2cn[nH]c2)c(F)cc1-c1ccc(O[C@@H]2C[C@H]3CCC[C@@H](C2)N3)nn1` [compound 278, 2-(6-(((1R,3S,5S)-9-azabicyclo[3.3.1]nonan-3-yl)oxy)pyridazin-3-yl)-4-fluoro-5-(1H-pyrazol-4-yl)phenol] returned an IC50 of 10 to 100 nM.
On to `CN(c1ccc(-c2ccc(-n3ccnn3)cc2O)nn1)[C@@H]1C[C@H]2CCC[C@@H](C1)N2` [compound 279, 2-(6-(((1R,3S,5S)-9-azabicyclo[3.3.1]nonan-3-yl)(methyl)amino)pyridazin-3-yl)-5-(1H-1,2,3-triazol-1-yl)phenol], for which the IC50 in test [1] (Cell viability) was 10 to 100 nM; in test [3] it was less than 10 nM. Also, the EC50 in test [2] was less than 10 nM.
On to `[2H]C([2H])([2H])n1ncc(-c2ccc(-c3ccc(N(C)[C@@H]4C[C@H]5CCC[C@@H](C4)N5)nn3)c(O)c2)cc1=O` [compound 281], for which the IC50 in test [1] (setting [4]) and in test [3] was less than 10 nM throughout. Further, in test [2], the EC50 was less than 10 nM.
`[2H]C([2H])([2H])n1ccc(-c2ccc(-c3ccc(N(C)[C@@H]4C[C@H]5CCC[C@@H](C4)N5)nn3)c(O)c2)cc1=O` [compound 284, 4-(4-(6-(((1R,3S,5S)-9-azabicyclo[3.3.1]nonan-3-yl)(methyl)amino)pyridazin-3-yl)-3-hydroxyphenyl)-1-(methyl-d3)pyridin-2(1H)-one]: the IC50 in test [1] (setting [4]) and in test [3] was less than 10 nM each time. Further, the EC50 in test [2] is greater than 1000 nM.
Molecule `CN(C)C(=O)c1cc2cc(O)c(-c3ccc(N(C)[C@@H]4C[C@H]5CCC[C@@H](C4)N5)nn3)cc2o1` [compound 295, 6-(6-(((1R,3S,5S)-9-azabicyclo[3.3.1]nonan-3-yl)(methyl)amino)pyridazin-3-yl)-5-hydroxy-N,N-dimethylbenzofuran-2-carboxamide] came in with an IC50 in test [1] (setting [4]) of 251 to 500 nM.
Same read-out and setting: with `CN(C)C(=O)c1cc2cc(-c3ccc(N(C)[C@@H]4C[C@H]5CCC[C@@H](C4)N5)nn3)c(O)cc2o1` [compound 298, 5-(6-(((1R,3S,5S)-9-azabicyclo[3.3.1]nonan-3-yl)(methyl)amino)pyridazin-3-yl)-6-hydroxy-N,N-dimethylbenzofuran-2-carboxamide] the figure was 10 to 100 nM.
The same measure, in the same setting: with `CN(c1ccc(-c2ccc(-c3cnn(C(F)F)c3)cc2O)nn1)[C@@H]1C[C@H]2CCC[C@@H](C1)N2` [compound 301, 2-(6-(((1R,3S,5S)-9-azabicyclo[3.3.1]nonan-3-yl)(methyl)amino)pyridazin-3-yl)-5-(l-(difluoromethy)-1H-pyrazol-4-yl)phenol] the figure was 10 to 100 nM.

In general, IC50 refers to the midpoint of a concentration-inhibition curve. What is called EC50 is the midpoint of the concentration-response curve.

For the origin of these results see patent publication US11129829B2, “Methods for modulating splicing” (Skyhawk Therapeutics, Inc., priority 2019, dated 2021).
